Results: patent US5817617A, “Selectin and pertussis toxin derived peptides and uses thereof” (The Rockefeller University, priority 1994, dated 1998)
Where a SMILES comes first, the peptide text is derived from it.

Tests used:
Format in all cases: cell-based
[1] = system: CR3; assay: Assay 3: upregulation of integrins (CR3) on the surface of a neutrophil, detected with EC3bi (FIG. 5); conditions: for # of cells ASSAY 3: peptide at 1 mg/ml, upregulation of integrins on neutrophil; for ability to upregulate integrins on leukocytes, assay 3 (in words): peptides of Table 2
Protocol: EC3bi is an erythrocyte coated with the complement component C3bi and is used to detect the presence of CR3 on the surface of a leukocyte according to the procedure of Wright et al (supra).
The test was conducted with separate proteins in tissue culture as in the experiment described in connection with the previous figure.
Assay 3 measures upregulation of integrins on the surface of a neutorphil as described in FIG. 5. Values ±50% are significant.

[2] = system: ELAM; assay: Assay 1: inhibition of adherence of neutrophils to ELAM-coated surfaces (FIG. 4); conditions: for % of inhibition ASSAY 1: peptide at 1 mg/ml, neutrophils on ELAM-coated surfaces
Protocol: In the study, the proteins PT, B-oligomer, S2, S3, S2/S3 and S3/S2 were taken up in an isotonic buffered tissue culture medium to a concentration of 50 ug/ml and the ability of each of them to inhibit adhesion of neutrophils to ELAM or GMP140 was determined as described by Wright et al J. Exp. Med. 158:2016 (1983). The buffer was employed as the control and each protein studied was compared to the control for the ability to decrease adhesion capacity.
Assay 1 is inhibition of adherence of enutrophils to ELAM-coated surfaces as described in connection with FIG. 4. Values ±20% inhibition are significant.

[3] = system: endothelial cells; assay: Assay 2: inhibition of adherence of a neutrophil to a monolayer of endothelial cells; conditions: peptide at 1 mg/ml; for % of inhibition ASSAY 2: neutrophil on monolayer of endothelial cells; for activity in Assays 1 or 2 (in words): adherence of leukocytes to selectins or endothelial cells bearing selectins
Source text: Assay 2 is inhibition of adherence of a neutrophil to a monolayer of endothelial cells as described by Lo et al J. Exp. Med. 173:1493-1500 (1991). Values ±50% inhibition are significant.

Row | Compound | # of cells ASSAY 3 [1] | ability to upregulate integrins on leukocytes, assay 3 (in words) [1] | % of inhibition ASSAY 1 [2] | % of inhibition ASSAY 2 [3] | activity in Assays 1 or 2 (in words) [3] | inhibition of neutrophil/leukocyte adherence to ELAM ([2]; protein at 50 ug/ml, compared to buffer control)
1 | CC[C@H](C)[C@H](NC(=O)[C@H](C)NC(=O)[C@@H](N)C(C)C)C(=O)N[C@@H](CCC(N)=O)C(=O)N[C@@H](CC(N)=O)C(=O)N[C@@H](CCCCN)C(=O)N[C@@H](CCC(=O)O)C(=O)N[C@@H](CCC(=O)O)C(=O)N[C@H](C(=O)N[C@@H](CCC(=O)O)C(=O)N[C@@H](Cc1ccc(O)cc1)C(=O)N[C@@H](CC(C)C)C(=O)N[C@@H](CC(N)=O)C(=O)N[C@@H](CO)C(=O)N[C@H](C(=O)N[C@@H](CC(C)C)C(=O)N[C@@H](CO)C(=O)N[C@@H](Cc1ccc(O)cc1)C(=O)N[C@@H](CO)C(=O)O)[C@@H](C)CC)[C@@H](C)CC [SEQ ID NO:15, VAIQNKEEIEYLNSILSYS] (H-VAIQNKEEIEYLNSILSYS-OH) | 71 # of cells | ability to upregulate integrins on leukocytes | 22-52% | – | – | –
2 | CC[C@H](C)[C@H](NC(=O)[C@H](C)NC(=O)[C@@H](NC(=O)[C@H](CC(C)C)NC(=O)[C@H](CC(=O)O)NC(=O)[C@@H](N)[C@@H](C)O)C(C)C)C(=O)N[C@@H](CCC(N)=O)C(=O)N[C@@H](CC(N)=O)C(=O)N[C@@H](CCCCN)C(=O)N[C@@H](C)C(=O)N[C@@H](CCC(=O)O)C(=O)N[C@H](C(=O)N[C@@H](CCC(=O)O)C(=O)N[C@@H](Cc1ccc(O)cc1)C(=O)N[C@@H](CC(C)C)C(=O)O)[C@@H](C)CC [SEQ ID NO:19, TDLVAIQNKAEIEYL] (H-TDLVAIQNKAEIEYL-OH) | 104 # of cells | ability to upregulate integrins on leukocytes | – | 80% | – | –
3 | CC(C)C[C@H](NC(=O)[C@H](Cc1ccc(O)cc1)NC(=O)[C@@H](NC(=O)[C@H](CCC(N)=O)NC(=O)[C@H](CC(C)C)NC(=O)[C@H](CCC(=O)O)NC(=O)[C@H](C)NC(=O)[C@H](CC(N)=O)NC(=O)CNC(=O)[C@H](CC(C)C)NC(=O)[C@H](CCC(=O)O)NC(=O)[C@H](C)NC(=O)[C@@H](NC(=O)[C@@H](NC(=O)[C@H](CC(C)C)NC(=O)[C@H](C)N)[C@@H](C)O)C(C)C)[C@@H](C)O)C(=O)O [SEQ ID NO:26, ALTVAELGNAELQTYL] (H-ALTVAELGNAELQTYL-OH) | – | ability to upregulate integrins on leukocytes | – | – | active | –
4 | CC[C@H](C)[C@H](NC(=O)[C@H](CO)NC(=O)[C@H](CC(N)=O)NC(=O)[C@H](CC(C)C)NC(=O)[C@H](Cc1ccc(O)cc1)NC(=O)[C@H](CCC(=O)O)NC(=O)[C@@H](NC(=O)[C@H](CCC(=O)O)NC(=O)[C@H](CCC(=O)O)NC(=O)[C@@H](N)CCCCN)[C@@H](C)CC)C(=O)N[C@@H](CC(C)C)C(=O)N[C@@H](CO)C(=O)N[C@@H](Cc1ccc(O)cc1)C(=O)N[C@@H](CO)C(=O)O [SEQ ID NO:29, KEEIEYLNSILSYS] (H-KEEIEYLNSILSYS-OH) | 73 # of cells | – | 0-2% | – | – | –
5 | CC[C@H](C)[C@H](NC(=O)[C@H](C)NC(=O)[C@@H](NC(=O)[C@H](CC(C)C)NC(=O)[C@@H](N)[C@@H](C)O)C(C)C)C(=O)N[C@@H](CCC(N)=O)C(=O)N[C@@H](CC(N)=O)C(=O)N[C@@H](CCCCN)C(=O)N[C@@H](CCC(=O)O)C(=O)N[C@@H](CCC(=O)O)C(=O)N[C@H](C(=O)N[C@@H](CCC(=O)O)C(=O)N[C@@H](Cc1ccc(O)cc1)C(=O)N[C@@H](CC(C)C)C(=O)O)[C@@H](C)CC [SEQ ID NO:30, TLVAIQNKEEIEYL] (H-TLVAIQNKEEIEYL-OH) | 243 # of cells | ability to upregulate integrins on leukocytes | – | 80% | – | –
6 | CC[C@H](C)[C@H](NC(=O)[C@H](C)NC(=O)[C@@H](N)C(C)C)C(=O)N[C@@H](CCC(N)=O)C(=O)N[C@@H](CC(N)=O)C(=O)N[C@@H](CCCCN)C(=O)N[C@@H](C)C(=O)N[C@@H](CCC(=O)O)C(=O)N[C@H](C(=O)N[C@@H](CCC(=O)O)C(=O)N[C@@H](Cc1ccc(O)cc1)C(=O)N[C@@H](CC(C)C)C(=O)N[C@@H](CCC(=O)O)C(=O)N[C@@H](CCCCN)C(=O)N[C@H](C(=O)N[C@@H](CC(C)C)C(=O)N1CCC[C@H]1C(=O)N[C@@H](Cc1ccccc1)C(=O)N[C@@H](CO)C(=O)O)[C@@H](C)O)[C@@H](C)CC [SEQ ID NO:31, VAIQNKAEIEYLEKTLPFS] (H-VAIQNKAEIEYLEKTLPFS-OH) | 163 # of cells | ability to upregulate integrins on leukocytes | 23-31% | – | – | –
7 | CC[C@H](C)[C@H](NC(=O)[C@H](CCC(N)=O)NC(=O)[C@H](CCCNC(=N)N)NC(=O)[C@H](CC(C)C)NC(=O)[C@H](Cc1ccc(O)cc1)NC(=O)[C@@H](NC(=O)[C@H](CCC(N)=O)NC(=O)[C@H](CC(C)C)NC(=O)[C@H](CCC(=O)O)NC(=O)[C@H](C)N)[C@@H](C)O)C(=O)N[C@H](C(=O)N1CCC[C@H]1C(=O)NCC(=O)N[C@@H](Cc1c[nH]c2ccccc12)C(=O)N[C@@H](CO)C(=O)O)[C@@H](C)O [SEQ ID NO:32, AELQTYLRQITPGWS] (H-AELQTYLRQITPGWS-OH) | 122 # of cells | – | 0-18% | – | – | –
8 | CC[C@H](C)[C@H](NC(=O)[C@H](C)NC(=O)[C@@H](N)C(C)C)C(=O)N[C@@H](CCC(N)=O)C(=O)N[C@@H](CC(N)=O)C(=O)N[C@@H](CCCCN)C(=O)N[C@@H](CC(N)=O)C(=O)N[C@@H](CCC(=O)O)C(=O)N[C@H](C(=O)N[C@@H](CC(=O)O)C(=O)N[C@@H](Cc1ccc(O)cc1)C(=O)N[C@@H](CC(C)C)C(=O)N[C@@H](CC(N)=O)C(=O)N[C@@H](CCCCN)C(=O)N[C@H](C(=O)N[C@@H](CC(C)C)C(=O)N1CCC[C@H]1C(=O)N[C@@H](Cc1ccc(O)cc1)C(=O)N[C@@H](Cc1ccc(O)cc1)C(=O)N[C@@H](CO)C(=O)O)C(C)C)[C@@H](C)CC [SEQ ID NO:33] (H-VAIQNKNEIDYLNKVLPYYS-OH) | 113 # of cells | ability to upregulate integrins on leukocytes | 3-14% | – | – | –
9 | CC(C)C[C@H](NC(=O)[C@H](CC(=O)O)NC(=O)CNC(=O)[C@H](CO)NC(=O)CNC(=O)[C@H](CCCNC(=N)N)NC(=O)[C@H](CC(C)C)NC(=O)[C@H](CCC(=O)O)NC(=O)[C@H](C)NC(=O)[C@@H](N)C(C)C)C(=O)N[C@@H](CCC(N)=O)C(=O)N[C@@H](CCC(=O)O)C(=O)N[C@@H](Cc1ccc(O)cc1)C(=O)N[C@@H](CC(C)C)C(=O)N[C@@H](CCCNC(=N)N)C(=O)N[C@@H](Cc1c[nH]cn1)C(=O)N[C@H](C(=O)N[C@H](C(=O)N[C@@H](CCCNC(=N)N)C(=O)NCC(=O)N[C@@H](Cc1c[nH]c2ccccc12)C(=O)N[C@@H](CO)C(=O)O)[C@@H](C)O)C(C)C [SEQ ID NO:34] | 18 # of cells | does not share this property | 22-33% | – | – | –
10 | CC(C)C[C@H](NC(=O)[C@H](CC(=O)O)NC(=O)CN)C(=O)N[C@@H](CCC(N)=O)C(=O)N[C@@H](CCC(=O)O)C(=O)N[C@@H](Cc1ccc(O)cc1)C(=O)N[C@@H](CC(C)C)C(=O)N[C@@H](CCCNC(=N)N)C(=O)N[C@@H](Cc1c[nH]cn1)C(=O)N[C@H](C(=O)N[C@H](C(=O)N[C@@H](CCCNC(=N)N)C(=O)NCC(=O)N[C@@H](Cc1c[nH]c2ccccc12)C(=O)N[C@@H](CO)C(=O)O)[C@@H](C)O)C(C)C [SEQ ID NO:35, GDLQEYLRHVTRGWS] | 104 # of cells | – | 0-14% | – | – | –
11 | CC(C)C[C@H](NC(=O)[C@H](Cc1ccc(O)cc1)NC(=O)[C@H](CCC(=O)O)NC(=O)[C@H](CCC(N)=O)NC(=O)[C@H](CC(C)C)NC(=O)[C@H](CC(=O)O)NC(=O)CNC(=O)[C@H](CO)NC(=O)CNC(=O)[C@H](CC(C)C)NC(=O)[C@H](CCC(=O)O)NC(=O)[C@H](C)NC(=O)[C@@H](NC(=O)[C@@H](NC(=O)[C@H](CC(C)C)NC(=O)[C@H](C)N)[C@@H](C)O)C(C)C)C(=O)O [SEQ ID NO:36, ALTVAELGSGDLQEYL] (H-ALTVAELGSGDLQEYL-OH) | 232 # of cells | ability to upregulate integrins on leukocytes | – | 80% | active | –
12 | S3 with deletion 1: S3 protein from which the VA or YL region of the motif was deleted (TRALTRGNAELQTYLRQITP) | – | – | – | – | – | 16%
